Reference: patent US5807535A, “Metal complexes of hydroxyaryl containing aminocarboxylic acid chelating agents” (Australian Nuclear Science & Technology Organisation, priority 1992, dated 1998)
Like-named read-outs stand apart in the source and are kept apart here.

Experiments:
[1] = Biodistribution of 99mTc complexes in rats; format: in vivo, Australian Albino Wistar Rats; conditions: for tissue uptake at 0.5 min / tissue uptake at 1 min / tissue uptake at 0.05 h / tissue uptake at 5 min / tissue uptake at 10 min: rat; for tissue uptake at 0.5 min: 30 sec
Procedure, shortened: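 Chelators were dissolved in basic saline, brought to about pH 6 with HCl, and reduced with excess stannous chloride before one equivalent volume of sodium 99mTcO4 (10-50 mCi/ml) was added, giving roughly 1 mg/ml chelator. Labelling efficacy was checked by ITLC-SG. Complexes were diluted in saline to 15 μCi/100 μl for rat biodistribution, with tissue uptake expressed as %ID/g.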

[2] = Biodistribution of 67Ga complexes in mice; format: in vivo, balb/c mice
Procedure, shortened: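 Ligand labelled with 67Ga citrate at pH 12, 40 °C for 40 min, diluted in saline and filter-sterilised. Balb/c mice given ~3.7×10^5 Bq intravenously via tail vein; five animals sacrificed at each of six time points.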

[3] = blood, rats, read-out: biodistribution blood
[4] = bone, rats, read-out: biodistribution bone
[5] = brain, rats, read-out: biodistribution brain
[6] = eyes, rats, read-out: biodistribution eyes
[7] = heart, rats, read-out: biodistribution heart
[8] = kidneys, rats, read-out: biodistribution kidneys
[9] = liver, rats, read-out: biodistribution liver
[10] = lungs, rats, read-out: biodistribution lungs
[11] = muscle, rats, read-out: biodistribution muscle
[12] = pancreas, rats, read-out: biodistribution pancreas
[13] = skin, rats, read-out: biodistribution skin
[14] = spleen, rats, read-out: biodistribution spleen
[15] = stomach, rats, read-out: biodistribution stomach
[16] = tail, rats, read-out: biodistribution tail
[17] = thymus, rats, read-out: biodistribution thymus
[18] = thyroid, rats, read-out: biodistribution thyroid
[19] = total git, rats, read-out: biodistribution tot GIT

CC(C)(C)c1ccc(O)c(NC(=O)CN(CCN(CC(=O)O)CC(=O)Nc2cc(C(C)(C)C)ccc2O)CC(=O)O)c1 [Compound 4]
hepatobiliary passage ([1]; Tables 2 and 4): specifically traverse the hepatobiliary system
tissue uptake at 0.5 min [1, 3]: 5.84 %ID/g
tissue uptake at 1 min [1, 3]: 3.96 %ID/g
tissue uptake at 0.05 h ([1]; blood, rats, 3 minutes, selected data, read-out: Blood): 1.71 %ID/g
tissue uptake at 5 min [1, 3]: 1.33 %ID/g
tissue uptake at 10 min [1, 3]: 0.99 %ID/g
tissue uptake at 0.5 min [1, 4]: 0.61 %ID/g
tissue uptake at 1 min [1, 4]: 0.54 %ID/g
tissue uptake at 0.05 h ([1]; bone, rats, 3 min, read-out: biodistribution bone): 0.32 %ID/g
tissue uptake at 5 min [1, 4]: 0.26 %ID/g
tissue uptake at 10 min [1, 4]: 0.19 %ID/g
tissue uptake at 0.5 min [1, 5]: 0.43 %ID/g
tissue uptake at 1 min [1, 5]: 0.26 %ID/g
tissue uptake at 0.05 h ([1]; brain, rats, 3 min, read-out: biodistribution brain): 0.12 %ID/g
tissue uptake at 5 min [1, 5]: 0.08 %ID/g
tissue uptake at 10 min [1, 5]: 0.06 %ID/g
tissue uptake at 0.5 min [1, 6]: 0.22 %ID/g
tissue uptake at 1 min [1, 6]: 0.19 %ID/g
tissue uptake at 0.05 h ([1]; eyes, rats, 3 min, read-out: biodistribution eyes): 0.15 %ID/g
tissue uptake at 5 min [1, 6]: 0.13 %ID/g
tissue uptake at 10 min [1, 6]: 0.16 %ID/g
tissue uptake at 0.5 min [1, 7]: 1.78 %ID/g
tissue uptake at 1 min [1, 7]: 1.26 %ID/g
tissue uptake at 0.05 h ([1]; heart, rats, 3 min, read-out: biodistribution heart): 0.65 %ID/g
tissue uptake at 5 min [1, 7]: 0.48 %ID/g
tissue uptake at 10 min [1, 7]: 0.36 %ID/g
tissue uptake at 0.05 h ([1]; kidney, rats, 3 minutes, selected data, read-out: Kidney): 4.54 %ID/g
tissue uptake at 0.5 min [1, 8]: 5.57 %ID/g
tissue uptake at 1 min [1, 8]: 4.86 %ID/g
tissue uptake at 0.05 h ([1]; kidneys, rats, 3 min, read-out: biodistribution kidneys): 4.54 %ID/g
tissue uptake at 5 min [1, 8]: 3.89 %ID/g
tissue uptake at 10 min [1, 8]: 2.33 %ID/g
tissue uptake at 0.5 min [1, 9]: 6.83 %ID/g
tissue uptake at 1 min [1, 9]: 8.03 %ID/g
tissue uptake at 0.05 h ([1]; liver, rats, 3 minutes, selected data, read-out: Liver): 7.89 %ID/g
tissue uptake at 5 min [1, 9]: 7.39 %ID/g
tissue uptake at 10 min [1, 9]: 4.9 %ID/g
tissue uptake at 0.5 min [1, 10]: 2.37 %ID/g
tissue uptake at 1 min [1, 10]: 1.67 %ID/g
tissue uptake at 0.05 h ([1]; lungs, rats, 3 min, read-out: biodistribution lungs): 1 %ID/g
tissue uptake at 5 min [1, 10]: 0.66 %ID/g
tissue uptake at 10 min [1, 10]: 0.53 %ID/g
tissue uptake at 0.5 min [1, 11]: 0.36 %ID/g
tissue uptake at 1 min [1, 11]: 0.29 %ID/g
tissue uptake at 0.05 h ([1]; muscle, rats, 3 min, read-out: biodistribution muscle): 0.22 %ID/g
tissue uptake at 5 min [1, 11]: 0.18 %ID/g
tissue uptake at 10 min [1, 11]: 0.13 %ID/g
tissue uptake at 0.5 min [1, 12]: 0.9 %ID/g
tissue uptake at 1 min [1, 12]: 0.69 %ID/g
tissue uptake at 0.05 h ([1]; pancreas, rats, 3 min, read-out: biodistribution pancreas): 0.55 %ID/g
tissue uptake at 5 min [1, 12]: 0.32 %ID/g
tissue uptake at 10 min [1, 12]: 0.39 %ID/g
tissue uptake at 0.5 min [1, 13]: 0.53 %ID/g
tissue uptake at 1 min [1, 13]: 0.51 %ID/g
tissue uptake at 0.05 h ([1]; skin, rats, 3 min, read-out: biodistribution skin): 0.46 %ID/g
tissue uptake at 5 min [1, 13]: 0.37 %ID/g
tissue uptake at 10 min [1, 13]: 0.36 %ID/g
tissue uptake at 0.5 min [1, 14]: 0.93 %ID/g
tissue uptake at 1 min [1, 14]: 0.8 %ID/g
tissue uptake at 0.05 h ([1]; spleen, rats, 3 min, read-out: biodistribution spleen): 0.42 %ID/g
tissue uptake at 5 min [1, 14]: 0.32 %ID/g
tissue uptake at 10 min [1, 14]: 0.27 %ID/g
tissue uptake at 0.5 min [1, 15]: 1.04 %ID/g
tissue uptake at 1 min [1, 15]: 0.95 %ID/g
tissue uptake at 0.05 h ([1]; stomach, rats, 3 min, read-out: biodistribution stomach): 3.09 %ID/g
tissue uptake at 5 min [1, 15]: 2.71 %ID/g
tissue uptake at 10 min [1, 15]: 3.8 %ID/g
tissue uptake at 0.5 min [1, 16]: 1.03 %ID/g
tissue uptake at 1 min [1, 16]: 0.53 %ID/g
tissue uptake at 0.05 h ([1]; tail, rats, 3 min, read-out: biodistribution tail): 0.39 %ID/g
tissue uptake at 5 min [1, 16]: 1.23 %ID/g
tissue uptake at 10 min [1, 16]: 0.32 %ID/g
tissue uptake at 0.5 min [1, 17]: 0.66 %ID/g
tissue uptake at 1 min [1, 17]: 0.49 %ID/g
tissue uptake at 0.05 h ([1]; thymus, rats, 3 min, read-out: biodistribution thymus): 0.31 %ID/g
tissue uptake at 5 min [1, 17]: 0.22 %ID/g
tissue uptake at 10 min [1, 17]: 0.19 %ID/g
tissue uptake at 0.5 min [1, 18]: 3.49 %ID/g
tissue uptake at 1 min [1, 18]: 2.28 %ID/g
tissue uptake at 0.05 h ([1]; thyroid, rats, 3 min, read-out: biodistribution thyroid): 1.11 %ID/g
tissue uptake at 5 min [1, 18]: 0.89 %ID/g
tissue uptake at 10 min [1, 18]: 0.79 %ID/g
tissue uptake at 0.5 min [1, 19]: 0.61 %ID/g
tissue uptake at 1 min [1, 19]: 0.74 %ID/g
tissue uptake at 0.05 h ([1]; total git, rats, 3 min, read-out: biodistribution tot GIT): 1.59 %ID/g
tissue uptake at 5 min [1, 19]: 2.62 %ID/g
tissue uptake at 10 min [1, 19]: 5.16 %ID/g
tissue uptake at 10 min ([1]; urine, rats, read-out: biodistribution urine): 0.08 %ID/g
liver versus kidney uptake ([1]; rats): preference for the liver uptake as opposed to the kidney
biodistribution blood ([1]; rats, 3 min): 1.71 % Injected dose per gram
biodistribution liver ([1]; rats, 3 min): 7.89 % Injected dose per gram
biodistribution bone ([2]; 1 min): 3.20 % ID
biodistribution kidney ([2]; 1 min): 6.91 % ID
biodistribution liver ([2]; 1 min): 39.06 % ID
biodistribution muscle ([2]; 1 min): 11.34 % ID
biodistribution skin ([2]; 1 min): 11.94 % ID
biodistribution spleen ([2]; 1 min): 0.15 % ID
biodistribution bone ([2]; 3 min): 1.31 % ID
biodistribution kidney ([2]; 3 min): 2.12 % ID
biodistribution liver ([2]; 3 min): 43.23 % ID
biodistribution muscle ([2]; 3 min): 5.08 % ID
biodistribution skin ([2]; 3 min): 8.12 % ID
biodistribution spleen ([2]; 3 min): 0.04 % ID
biodistribution bone ([2]; 5 min): 0.98 % ID
biodistribution kidney ([2]; 5 min): 1.59 % ID
biodistribution liver ([2]; 5 min): 39.61 % ID
biodistribution muscle ([2]; 5 min): 4.29 % ID
biodistribution skin ([2]; 5 min): 8.22 % ID
biodistribution spleen ([2]; 5 min): 0.03 % ID
biodistribution bone ([2]; 10 min): 0.20 % ID
biodistribution kidney ([2]; 10 min): 0.43 % ID
biodistribution liver ([2]; 10 min): 8.29 % ID
biodistribution muscle ([2]; 10 min): 0.65 % ID
biodistribution skin ([2]; 10 min): 2.92 % ID
biodistribution spleen ([2]; 10 min): 0.00 % ID
biodistribution bone ([2]; 30 min): 0.13 % ID
biodistribution kidney ([2]; 30 min): 0.17 % ID
biodistribution liver ([2]; 30 min): 1.06 % ID
biodistribution muscle ([2]; 30 min): 0.32 % ID
biodistribution skin ([2]; 30 min): 0.18 % ID
biodistribution spleen ([2]; 30 min): 0.00 % ID
biodistribution kidney ([2]; 120 min): 0.07 % ID
biodistribution liver ([2]; 120 min): 0.29 % ID
biodistribution muscle ([2]; 120 min): 0.21 % ID
biodistribution skin ([2]; 120 min): 0.15 % ID
biodistribution spleen ([2]; 120 min): 0.01 % ID
